Read-outs that look alike come from different tables or passages of the source. Marks after values point to notes of the source that are not given here.
Assays:
[1] = ref PharmaPendium, cited from earlier work
[2] = test system: hiPSC-derived neurons co-cultured with human primary astrocytes in 2D; experiment: Ca2+ transient oscillation assay (FDSS), 2D co-culture; assay type: cell-based; settings: for Area under the curve - 2D Mean / Peak Number—2D Mean / Peak amplitude - 2D Mean / Peak width - 2D Mean / Peak-to-peak interval - 2D Mean / activation at 0.37 µM / activation at 1.11 µM / activation at 3.33 µM / activation at 10 µM: 60 min; for effect on peak number / Ca2+ neuronal oscillations, in words: 2D format; for activation at 0.37 µM / activation at 1.11 µM / activation at 3.33 µM / activation at 10 µM: Homo sapiens, 1 h
Procedure, shortened: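 hiPSC-derived excitatory neurons (CW50065, Quick-Neuron EX-SeV) co-cultured with human primary astrocytes at 4:1 (10,000:2500 cells per well). Cal-520-loaded cells in HBSS with 2 mM CaCl2 and 10 mM HEPES were pretreated with 0.04% DMSO.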

[3] = test system: hiPSC-derived neurons co-cultured with human primary astrocytes in 3D; experiment: Ca2+ transient oscillation assay (FDSS), 3D spheroids; assay type: cell-based; settings: for Area under the curve - 3D Mean / Peak Number—3D Mean / Peak amplitude - 3D Mean / Peak width - 3D Mean / Peak-to-peak interval - 3D Mean: 60 min; for effect on peak number of oscillations, in words: 3D-cultured
Procedure, shortened: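 Fura-2 fluorescence was read twice for 20 min each: a baseline 10 min after 0.04% DMSO, and again 60 min after compound addition at nominal final concentration. The 3D co-cultures (1:1 hiPSC neurons from a donor and human astrocytes, 8000 each) matured 5 weeks in BrainPhys medium after a 1-week differentiation.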

[4] = Table 1, peak plasma concentration in men, free therapeutic Cmax
[5] = Table 2, highest plasma concentration in humans after the therapeutic dose
[6] = concentration printed with the symbol

For N[C@@H](CCC(=O)O)C(=O)O [Glutamate], the “Free Cmax” value [1, 4] is given as 1 to 2 µM, the “Free Cmax” value [1, 5] is given as 1 to 2 µM and the “Area under the curve - 2D Mean” value ([2]; 1.11 µM) is given as 5.8 % change from baseline. The “Peak Number—2D Mean” value ([2]; 1.11 µM) was −9.3 % change from baseline, the “Peak amplitude - 2D Mean” value ([2]; 1.11 µM) was −8.5 % change from baseline and the “Peak width - 2D Mean” value ([2]; 1.11 µM) was −3.4 % change from baseline. For the same molecule, the “Peak-to-peak interval - 2D Mean” value ([2]; 1.11 µM) was −2.2 % change from baseline, the “Area under the curve - 2D Mean” value ([2]; 3.33 µM) was −13.0 % change from baseline and the “Peak Number—2D Mean” value ([2]; 3.33 µM) was −8.9 * % change from baseline. The “Peak amplitude - 2D Mean” value ([2]; 3.33 µM) was −26.9 % change from baseline, the “Peak width - 2D Mean” value ([2]; 3.33 µM) was −5.2 % change from baseline and the “Peak-to-peak interval - 2D Mean” value ([2]; 3.33 µM) was −17.4 % change from baseline. The “Area under the curve - 2D Mean” value ([2]; 10 µM) was −72.1 % change from baseline, the “Peak Number—2D Mean” value ([2]; 10 µM) was −60.3 * % change from baseline and the “Peak amplitude - 2D Mean” value ([2]; 10 µM) was −60.9 % change from baseline. The “Peak width - 2D Mean” value ([2]; 10 µM) was −67.3 % change from baseline, the “Peak-to-peak interval - 2D Mean” value ([2]; 10 µM) was 96.3 % change from baseline and the “Area under the curve - 2D Mean” value ([2]; 30 µM) was −100.0 % change from baseline. For the same molecule, the “Peak Number—2D Mean” value ([2]; 30 µM) was −100.0 * % change from baseline, the “Peak amplitude - 2D Mean” value ([2]; 30 µM) was −100.0 % change from baseline and the “Peak width - 2D Mean” value ([2]; 30 µM) was −100.0 % change from baseline. For the same molecule, the “Peak-to-peak interval - 2D Mean” value ([2]; 30 µM) was −100.0 % change from baseline, the “effect on peak number / Ca2+ neuronal oscillations, in words” value [2] was “significantly reduced peak number” and the “Ca²⁺ Transient Peak Number (2D), concentration in parentheses” value [2, 6] was 1 µM. For the same molecule, the “Area under the curve - 3D Mean” value ([3]; 1.11 µM) was 116.3 % change from baseline, the “Peak Number—3D Mean” value ([3]; 1.11 µM) was −7.0 % change from baseline and the “Peak amplitude - 3D Mean” value ([3]; 1.11 µM) was 85.4 % change from baseline. The “Peak width - 3D Mean” value ([3]; 1.11 µM) was 12.5 % change from baseline, the “Peak-to-peak interval - 3D Mean” value ([3]; 1.11 µM) was 11.6 % change from baseline and the “Area under the curve - 3D Mean” value ([3]; 3.33 µM) was 129.9 % change from baseline. For the same molecule, the “Peak Number—3D Mean” value ([3]; 3.33 µM) was 12.3 % change from baseline, the “Peak amplitude - 3D Mean” value ([3]; 3.33 µM) was 108.3 % change from baseline and the “Peak width - 3D Mean” value ([3]; 3.33 µM) was 8.6 % change from baseline. For the same molecule, the “Peak-to-peak interval - 3D Mean” value ([3]; 3.33 µM) was 3.1 % change from baseline, the “Area under the curve - 3D Mean” value ([3]; 10 µM) was 128.0 % change from baseline and the “Peak Number—3D Mean” value ([3]; 10 µM) was 20.0 % change from baseline. For the same molecule, the “Peak amplitude - 3D Mean” value ([3]; 10 µM) was 103.9 % change from baseline, the “Peak width - 3D Mean” value ([3]; 10 µM) was 8.1 % change from baseline and the “Peak-to-peak interval - 3D Mean” value ([3]; 10 µM) was 0.4 % change from baseline. The “Area under the curve - 3D Mean” value ([3]; 30 µM) was 116.3 % change from baseline, the “Peak Number—3D Mean” value ([3]; 30 µM) was 8.4 % change from baseline and the “Peak amplitude - 3D Mean” value ([3]; 30 µM) was 107.0 % change from baseline. The “Peak width - 3D Mean” value ([3]; 30 µM) was 2.8 % change from baseline, the “Peak-to-peak interval - 3D Mean” value ([3]; 30 µM) was −1.6 % change from baseline and the “effect on peak number of oscillations, in words” value [3] was “did not significantly change the peak number”. For the same molecule, the “Ca²⁺ Transient Peak Number (3D), concentration in parentheses” value [3, 6] was 30 µM.

In the case of CNCCCC12CCC(c3ccccc31)c1ccccc12 [Maprotiline], the “Free Cmax” value [1, 4] is listed as 0.06 µM, the “Free Cmax” value [1, 5] is listed as 0.06 µM and the “effect on peak number / Ca2+ neuronal oscillations, in words” value [2] is listed as “significantly reduced peak number”. For the same molecule, the activation at 0.37 µM ([2]; read-out: Area under the curve - 2D Mean) was 12.2%, the activation at 0.37 µM ([2]; read-out: Peak Number—2D Mean) was -0.7% and the activation at 0.37 µM ([2]; read-out: Peak amplitude - 2D Mean) was 8.3%. It also gave an activation at 0.37 µM ([2]; read-out: Peak width - 2D Mean) of 4.5%, an activation at 0.37 µM ([2]; read-out: Peak-to-peak interval - 2D Mean) of 1.8% and an activation at 1.11 µM ([2]; 1.11 µM, read-out: Area under the curve - 2D Mean) of -55.2%. It also gave an activation at 1.11 µM ([2]; 1.11 µM, read-out: Peak Number—2D Mean) of 0.5%, an activation at 1.11 µM ([2]; 1.11 µM, read-out: Peak amplitude - 2D Mean) of -19.8% and an activation at 1.11 µM ([2]; 1.11 µM, read-out: Peak width - 2D Mean) of -57.2%. The activation at 1.11 µM ([2]; 1.11 µM, read-out: Peak-to-peak interval - 2D Mean) was 11.7%, the activation at 3.33 µM ([2]; 3.33 µM, read-out: Area under the curve - 2D Mean) was -100% and the activation at 3.33 µM ([2]; 3.33 µM, read-out: Peak Number—2D Mean) was -100%. For the same molecule, the activation at 3.33 µM ([2]; 3.33 µM, read-out: Peak amplitude - 2D Mean) was -100%, the activation at 3.33 µM ([2]; 3.33 µM, read-out: Peak width - 2D Mean) was -100% and the activation at 3.33 µM ([2]; 3.33 µM, read-out: Peak-to-peak interval - 2D Mean) was -100%. The activation at 10 µM ([2]; 10 µM, read-out: Area under the curve - 2D Mean) was -100%, the activation at 10 µM ([2]; 10 µM, read-out: Peak Number—2D Mean) was -100% and the activation at 10 µM ([2]; 10 µM, read-out: Peak amplitude - 2D Mean) was -100%. The activation at 10 µM ([2]; 10 µM, read-out: Peak width - 2D Mean) was -100%, the activation at 10 µM ([2]; 10 µM, read-out: Peak-to-peak interval - 2D Mean) was -100% and the “Area under the curve - 3D Mean” value ([3]; 0.37 µM) was 139.7 % change from baseline. For the same molecule, the “Peak Number—3D Mean” value ([3]; 0.37 µM) was −16.5 % change from baseline, the “Peak amplitude - 3D Mean” value ([3]; 0.37 µM) was 116.3 % change from baseline and the “Peak width - 3D Mean” value ([3]; 0.37 µM) was 6.2 % change from baseline. For the same molecule, the “Peak-to-peak interval - 3D Mean” value ([3]; 0.37 µM) was 6.2 % change from baseline, the “Area under the curve - 3D Mean” value ([3]; 1.11 µM) was 133.4 % change from baseline and the “Peak Number—3D Mean” value ([3]; 1.11 µM) was −8.2 % change from baseline. The “Peak amplitude - 3D Mean” value ([3]; 1.11 µM) was 131.3 % change from baseline, the “Peak width - 3D Mean” value ([3]; 1.11 µM) was −1.0 % change from baseline and the “Peak-to-peak interval - 3D Mean” value ([3]; 1.11 µM) was 8.4 % change from baseline. The “Area under the curve - 3D Mean” value ([3]; 3.33 µM) was 123.1 % change from baseline, the “Peak Number—3D Mean” value ([3]; 3.33 µM) was −7.9 % change from baseline and the “Peak amplitude - 3D Mean” value ([3]; 3.33 µM) was 130.1 % change from baseline. The “Peak width - 3D Mean” value ([3]; 3.33 µM) was −3.2 % change from baseline, the “Peak-to-peak interval - 3D Mean” value ([3]; 3.33 µM) was 10.6 % change from baseline and the “Area under the curve - 3D Mean” value ([3]; 10 µM) was 11.9 % change from baseline. The “Peak Number—3D Mean” value ([3]; 10 µM) was 1.9 % change from baseline, the “Peak amplitude - 3D Mean” value ([3]; 10 µM) was 72.2 % change from baseline and the “Peak width - 3D Mean” value ([3]; 10 µM) was −40.8 % change from baseline. The “Peak-to-peak interval - 3D Mean” value ([3]; 10 µM) was −4.1 % change from baseline and the “effect on peak number of oscillations, in words” value [3] was “did not significantly change the peak number”.

Source: article PMC10046961, “High-Throughput Screening Assay for Detecting Drug-Induced Changes in Synchronized Neuronal Oscillations and Potential Seizure Risk Based on Ca^2+ Fluorescence Measurements in Human Induced Pluripotent Stem Cell (hiPSC)-Derived Neuronal 2D and 3D Cultures” (Cells, 2023)
